The values that follow come from patent US20120122780A1 (Ardea Biosciences Inc., priority 2009, published 2012).

The target in the experiment is T1, hURAT1 Transporter (Homo sapiens, UniProt Q96S37).
T1 construct: Full-length human URAT1 gene (SLC22Al2) was subcloned from plasmid pCMV6-XL5 (Origene) into eukaryotic expression plasmid pCMV6/Neo; expressed in transfected cells
T1 sequence (Q96S37 1-553): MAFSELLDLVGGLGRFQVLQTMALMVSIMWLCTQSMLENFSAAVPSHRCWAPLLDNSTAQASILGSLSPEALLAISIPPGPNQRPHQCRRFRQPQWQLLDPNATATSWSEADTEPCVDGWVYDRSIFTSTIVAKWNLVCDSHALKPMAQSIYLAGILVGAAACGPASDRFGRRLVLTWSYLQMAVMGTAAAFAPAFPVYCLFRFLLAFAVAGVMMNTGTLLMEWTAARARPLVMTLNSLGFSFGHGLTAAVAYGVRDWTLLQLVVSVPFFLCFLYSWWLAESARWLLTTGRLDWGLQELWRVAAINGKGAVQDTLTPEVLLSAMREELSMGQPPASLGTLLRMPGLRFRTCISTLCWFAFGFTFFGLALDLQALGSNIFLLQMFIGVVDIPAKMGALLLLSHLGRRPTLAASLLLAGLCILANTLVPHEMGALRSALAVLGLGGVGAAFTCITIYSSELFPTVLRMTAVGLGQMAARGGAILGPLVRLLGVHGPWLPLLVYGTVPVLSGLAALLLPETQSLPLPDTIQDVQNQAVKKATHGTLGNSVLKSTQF
The experiment is described as follows: Uric Acid Uptake Assay (URAT-1 EC50). Type of experiment: cell-based. The settings on record: HEK293/urat1 cells, C14 uric acid 40 μM, 10 minutes at room temperature. The text has this: Creation of Stable Cell Lines Expressing hURAT1 Transporter: Full-length human URAT1 gene (SLC22Al2) was subcloned from plasmid pCMV6-XL5 (Origene) into eukaryotic expression plasmid pCMV6/Neo (Origene) using Not I restriction sites. Gene sequencing confirmed the sequence of hURAT1 as outlined in Genbank (Accession #NM_144585.2). HEK293 human embryonic kidney cells (ATCC# CRL-1573) were propagated in EMEM tissue culture medium as described by ATCC in an atmosphere of 5% CO2 and 95% air. Transfections of HEK293 cells with the pCMV6/Neo/URAT1 construct were performed using L2000 transfection reagent (Invitrogen) as described by the manufacturer. After 24 h the transfected cells were split into 10 cm tissue culture plates and grown for 1 day after which the medium was replaced with fresh growth medium containing G418 (Gibco) at 0.5 mg/ml final concentration. Drug-resistant colonies were selected after approximately 8 days and then tested for ^14C-uric acid transport activity. The HEK293/urat1 cells are plated on Poly-D-Lysine Coated 96-well Plates at a density of 75,000 cells per well. Cells were grown overnight (20-26 hours) at 37° C. in an incubator. Plates were allowed to come to room temperature and media was washed out with one wash of 250 μl of Wash Buffer (125 mM Na Gluconate, 10 mM Hepes ph 7.3). Compound or vehicle is added in assay buffer with C14 Uric Acid for a final concentration of 40 μM Uric Acid with a specific activity of 54 mCi/mmol Assay Buffer is 125 mM Sodium Gluconate, 4.8 mM Potassium Gluconate, 1.2 mM Potassium phosphate, monobasic, 1.2 mM magnesium sulfate, 1.3 mM Ca Gluconate, 5.6 mM Glucose, 25 mM HEPES, pH 7.3. Plates were incubated at room temperature for 10 minutes then washed 3 times with 50 μWash Buffer and 3 times with 250 μl Wash Buffer. Microscint 20 Scintillation Fluid was added and plates were incubated overnight at 45° C. to equilibrate. Plates are then read on the TopCount Plate Reader and an EC50 value generated. (See Enomoto et al, Nature, 2002, 417, 447-451 and Anzai et al, J. Biol. Chem., 2004, 279, 45942-45950.)
Compounds prepared as described above, were examined according to the procedure described herein and EC50 values generated. The table below summarizes the activity of the compounds in the Uric Acid Uptake Assay, wherein

With `CCOC(=O)CSc1nnnn1-c1cccc2ccccc12` [6-1 (step C), Ethyl 2-(1-(naphthalen-1-yl)-1H-tetrazol-5-ylthio) acetate], the EC50 lay within 5 to 20 µM.

On to `O=C(O)CSc1nnnn1-c1cccc2ccccc12` [6-1 (step D), 2-(1-(naphthalen-1-yl)-1H-tetrazol-5-ylthio)acetic acid], for which the EC50 is more than 20 µM.

Compound `O=C(O)CSc1cnnn1-c1cccc2ccccc12` [Example 5A-1] had an EC50 of more than 20 µM.

`CC(C)(Oc1nnnn1-c1cccc2ccccc12)C(=O)O` [Example 6-3]: the EC50 is more than 20 µM.

Broadly, the EC50 is the concentration at which the effect is half-maximal. A lower EC50 goes with an effect from little substance.
